From patent publication US7527975B2, “Determination of high lipophilicity values” (Hoffmann-La Roche Inc., priority 2005, dated 2009)

Columns and labels:
[1] = DIFI-log D: octanol-impregnated PVDF membrane (DIFI-tubes) / buffer distribution, UV readout; conditions: for logD at 2 h: pH 7.4
Method: All compounds of the validation set were dissolved in dimethylsulfoxide at a concentration of 10 mM (DMSO-stock).
The experiment started with the accurate coating of 0,45 μm hydrophobic PVDF membranes (Immobilon-P PVDF (Millipore) and PVDF-Plus (Whatman, Headquater: 27 Great West Road, Brentford, Middlesex, TW8 9BW, UK), which were fixed on the bottom of the DI FI-tub es.
Each membrane is impregnated with exactly 1 μl octanol and 1μl DMSO-stock.
After a short incubation of 10 min the tubes with the coated membranes were connected to a 96-deepwell plate which had been prefilled with exactly 1600 μl of the selected buffer solution (50 mM TAPSO (FLUKA, BioChemika, ArtNo.93357), pH 7.4).
The plate was then sealed and shaken for two hours. During this time the substance was distributed between the membrane, the octanol and the buffer solution accordingly.
After the distribution equilibrium was reached (after 2 h) the tubes were carefully disassembled from the top of the deepwell plate in order to analyze the octanol phase which still stucks to the membrane.
Therefore, the remaining compound in the octanol phase was washed out with additional octanol as eluent. The concentration of the substance in the eluent was then determined by UV spectroscopy at absorption wavelengths between 250 and 450 nm.
In order to know the exact sample concentration before incubation with buffer a reference plate was generated under the same conditions as the described sample plate above. The reference plate was directly treated with the eluent and the resulted reference concentration in the octanol phase was measured by UV spectroscopy.
The lipophilicity value log D may be calculated from the analyzed sample concentration after incubation with buffer (Co) and the reference concentration before distribution (Cref).
Due to the fact, that all UV measurements were carried out under the same conditions, the concentration term were replaced by UV-absorption values (Abs) at the same wavelength.
In this equation, Vw is the volume of the aqueous phase was divided by the volume of the octanol phase Vo.
For each compounds three determinations were performed according to the described method above. The preparation of the reference and sample plate was performed manually.

[2] = known log D values from literature; sources a) MEDChem01, MEDChem03, b) calculated from logP and pKa, c) Winiwarter et al. 1998; cited from earlier work

Row | SMILES | logD at 2 h [1] | Lit. log D [2] | DIFI-log D ([1]; 1 μl octanol on 0,45 μm PVDF membrane / 1600 μl 50 mM TAPSO pH 7.4, shaken 2 h, UV 250-450 nm, three determinations)
1 | CN(C)CC/C=C1/c2ccccc2Sc2ccc(Cl)cc21 [Chlorprothixene] | 4.24 | 4.19 | 
2 | CCOC(=O)C1=C(C)NC(C)=C(C(=O)OC)C1c1cccc(Cl)c1Cl (centres unmarked) [Felodipine] | 4.84 |  | 
3 | C[C@]12CC[C@H]3[C@@H](CCC4=CC(=O)CC[C@@]43C)[C@@H]1CC[C@@H]2O [Testosterone] | 3.33 |  | 
4 | COc1ccccc1OCCNCC(O)COc1cccc2[nH]c3ccccc3c12 (centres unmarked) [Carvedilol] | 3.38 | 3.37 | 
5 | Clc1ccc(C(c2ccccc2Cl)C(Cl)Cl)cc1 (centres unmarked) [Mitotane] | 4.78 | 4.87 | 
6 | COCCOC(=O)C1=C(C)NC(C)=C(C(=O)OC(C)C)C1c1cccc([N+](=O)[O-])c1 (centres unmarked) [Nimodipine] | 3.61 | 3.73 | 
7 | Clc1ccccc1C(c1ccccc1)(c1ccccc1)n1ccnc1 [Clotrimazole] | 4.91 | 4.99 | 
8 | COc1ccc([C@@H]2Sc3ccccc3N(CCN(C)C)C(=O)[C@@H]2OC(C)=O)cc1 [Diltiazem] | 2.33 | 2.32 | 
9 | COc1ccc(CCN2CCC(Nc3nc4ccccc4n3Cc3ccc(F)cc3)CC2)cc1 [Astemizole] | 4.12 | 4.10 | 
10 | C[C@@H]1C[C@H]2[C@@H]3CCC4=CC(=O)C=C[C@]4(C)[C@@]3(F)[C@@H](O)C[C@]2(C)[C@@]1(O)C(=O)CO [Dexamethasone] |  |  | 1.83
